Laboratory results: patent US20120108559A1, “RECEPTOR ACTIVATOR OF THE RANK RECEPTOR COMPLEX INHIBITOR” (THE TRUSTEES OF THE UNIVERSITY OF PENNSYLVANIA, priority 2009, published 2012)

System: murine osteoclast precursors
Assay: TRANCE (RANKL)-induced osteoclast formation in vitro, TRAP assay
Format: cell-based
Details: osteoclast precursors cultured 3 days with murine CSF-1 (30 ng/mL) and TRANCE (300 ng/mL); FIG. 1
Method: The effects of the compound of Formula II-A-1 on TRANCE-mediated osteoclastogenesis were evaluated against murine osteoclast precursors using a TRAP (tartrate resistant acid phosphatase) assay. The techniques comprising this method are described more fully in U.S. Pat. No. 6,673,771.
Osteoclast precursors were cultured in 96-well plates (1×10^5/mL, 200 μL/well) for 3 days in the presence of murine CSF-1 (30 ng/mL) and TRANCE (300 ng/mL) with or without the compounds of Formulae III-1 and II-A-1 at the indicated concentration. After 3 days, the cells were fixed and stained for tartrate-resistant acid phosphatase (TRAP). TRAP-positive multinucleated cells were counted as osteoclast-like multinucleated cells.

With CC(=O)OCC12CCC(OC(C)=O)CC1(O)CC[C@@H]1[C@@H]2CCC2(C)C(C3=CC(=O)OC3)CCC12O (some centres unmarked) [II-A-1] the “inhibition of TRANCE induced osteoclast formation (TRAP-positive multinucleated cells)” value was “inhibited TRANCE induced osteoclast formation in vitro in a dose-dependent manner”.
With CC12CC[C@H]3[C@@H](CCC4(O)CC(OC(=O)CCC(=O)O)CCC34COC(=O)CCC(=O)O)C1(O)CCC2C1=CC(=O)OC1 (some centres unmarked) [III-1] the “inhibition of TRANCE induced osteoclast formation (TRAP-positive multinucleated cells)” value was “inhibited TRANCE induced osteoclast formation in vitro in a dose-dependent manner”.
